For series [1] the following is noted: 101.3 kPa, Liquid; for viscosity: Capillary tube (Ostwald / Ubbelohde) method.
A short description of series [2]: xn = mol fraction of the nth substance listed. The note with it: 101.3 kPa, Liquid, x2 = 0; for viscosity: Capillary tube (Ostwald / Ubbelohde) method.

Consider 5 molecules from the NIST ThermoML archive (doi:10.1021/je030151s).

A word on the mass density: it is mass per unit of volume. A word on the speed of sound: it is the propagation velocity of pressure waves in the medium. A word on the viscosity: it is the resistance of a fluid to flow.

SMILES strings stand for the structures. ± gives the expanded uncertainty stated by the source.

With `Cc1ccccc1C` [1,2-dimethylbenzene], in series [1] (293.15 K), the mass density came out at 880.2 ± 1.2 kg/m3, the speed of sound is 1365.6 ± 3.5 m/s and the viscosity is recorded as 0.8092 ± 0.0098 mPa·s. In series [1] (303.15 K), the mass density came out at 871.8 ± 1.2 kg/m3, the speed of sound stood at 1339 ± 3.5 m/s and the viscosity is recorded as 0.7172 ± 0.0089 mPa·s. Further, in series [1] (313.15 K), the mass density is reported as 863.2 ± 1.3 kg/m3, the speed of sound turned out to be 1297.5 ± 3.4 m/s and the viscosity was 0.6292 ± 0.0079 mPa·s.
As to `Cc1ccccc1C` [1,2-dimethylbenzene] + CCC(=O)CC, the viscosity in series [2] (293.15 K) was 0.8092 ± 0.0098 mPa·s; in series [2] (303.15 K) it was 0.7172 ± 0.0089 mPa·s; in series [2] (313.15 K), 0.6292 ± 0.0079 mPa·s. In addition, the mass density was found to be 880.2 ± 1.2 kg/m3 in series [2] (293.15 K), 871.8 ± 1.2 kg/m3 in series [2] (303.15 K) and 863.2 ± 1.3 kg/m3 in series [2] (313.15 K). Further, the values for the speed of sound in series [2] (293.15 K), in series [2] (303.15 K) and in series [2] (313.15 K) were 1365.6 ± 3.5 m/s, 1339 ± 3.5 m/s and 1297.5 ± 3.4 m/s, respectively.
For the molecule `CCc1ccccc1` [ethylbenzene], in series [1] (293.15 K), the mass density was 867.4 ± 1.2 kg/m3, the speed of sound is given as 1333.4 ± 3.5 m/s and the viscosity stood at 0.6793 ± 0.0085 mPa·s. Also, in series [1] (303.15 K), the mass density stood at 856.5 ± 1.2 kg/m3, the speed of sound is 1295.7 ± 3.4 m/s and the viscosity came out at 0.6006 ± 0.0077 mPa·s. In series [1] (313.15 K), the mass density amounted to 848.9 ± 1.3 kg/m3, the speed of sound is given as 1259.8 ± 3.4 m/s and the viscosity is listed as 0.5355 ± 0.007 mPa·s.
Consider `CCc1ccccc1` [ethylbenzene] + CCC(=O)CC, for which, in series [2] (293.15 K), the viscosity was 0.6793 ± 0.0085 mPa·s, the mass density came to 867.4 ± 1.2 kg/m3 and the speed of sound is given as 1333.4 ± 3.5 m/s. Also, in series [2] (303.15 K), the viscosity was 0.6006 ± 0.0077 mPa·s, the mass density was 856.5 ± 1.2 kg/m3 and the speed of sound worked out at 1295.7 ± 3.4 m/s. In series [2] (313.15 K), the viscosity is 0.5355 ± 0.007 mPa·s, the mass density turned out to be 848.9 ± 1.3 kg/m3 and the speed of sound is 1259.8 ± 3.4 m/s.
For the molecule `CCC(=O)CC` [pentan-3-one], in series [1] (293.15 K), the mass density turned out to be 814.4 ± 1.1 kg/m3, the speed of sound is listed as 1230.7 ± 3.3 m/s and the viscosity was determined as 0.4714 ± 0.0064 mPa·s. In addition, in series [1] (303.15 K), the mass density stood at 804.7 ± 1.1 kg/m3, the speed of sound stood at 1197.8 ± 3.3 m/s and the viscosity amounted to 0.4231 ± 0.0059 mPa·s. In series [1] (313.15 K), the mass density stood at 794.9 ± 1.2 kg/m3, the speed of sound is listed as 1159.1 ± 3.3 m/s and the viscosity is 0.3799 ± 0.0055 mPa·s.
